# Experimental data reported in patent publication US11638706B2, “Methods for treating Huntington's disease” (PTC Therapeutics, Inc., priority 2015, dated 2023).
# Tested on: Huntingtin protein (HTT)
# Assay: Endogenous Huntingtin Protein Assay (MSD electrochemiluminescence ELISA; MW1 or MAB2166 capture, #5656S detection)
# Format: cell-based, human
# Description: The Endogenous Huntingtin Protein assay used in Example 2 was developed using the Best Pair antibodies identified in Table 2, providing highly sensitive, high-throughput detection assays for polyglutamine-expanded (mHTT) and total human HTT in multiple cell systems. The platform used for the assay is the ELISA-based Meso Scale Discovery (MSD) electrochemiluminescence assay platform.
# Meso Scale Discovery (MSD) 96-well or 384-well plates were coated overnight at 4° C. with MW1 (expanded polyglutamine) or MAB2166 monoclonal antibody (for capture) at a concentration of 1 μg/mL in PBS (30 μL per well). Plates were then washed three times with 300 μL wash buffer (0.05% Tween-20 in PBS) and blocked (100 μL blocking buffer; 5% BSA in PBS) for 4-5 hours at room temperature with rotational shaking and then washed three times with wash buffer.
# Samples (25 μL) were transferred to the antibody-coated MSD plate and incubated overnight at 4° C. After removal of the lysates, the plate was washed three times with wash buffer, and 25 μL of #5656S (Cell signaling; rabbit monoclonal) secondary antibody (diluted to 0.25 μg/mL in 0.05% Tween-20 in blocking buffer) was added to each well and incubated with shaking for 1 Hour at room temperature. Following incubation with the secondary antibody, the wells were rinsed with wash buffer after which 25 μL of goat anti-rabbit SULFO TAG secondary detection antibody (required aspect of the MSD system) (diluted to 0.25 μg/mL in 0.05% Tween-20 in blocking buffer) was added to each well and incubated with shaking for 1 hour at room temperature. After rinsing three times with wash buffer, 150 μL of read buffer T with surfactant (MSD) were added to each empty well, and the plate was imaged on a SI 6000 imager (MSD) according to manufacturers' instructions provided for 96- or 384-well plates.
row,Compound,IC50
1,"CN(c1nnc(Oc2cccc(-c3cn[nH]c3)c2)s1)C1CC(C)(C)NC(C)(C)C1 [Cpd 462, N,2,2,6,6-pentamethyl-N-{5-[3-(1H-pyrazol-4-yl)phenoxy]-1,3,4-thiadiazol-2-yl}piperidin-4-amine]",3 to 9 µM
2,"CN(c1nnc(Oc2ccc(-c3cn[nH]c3)cc2)s1)C1CC(C)(C)NC(C)(C)C1 [Cpd 463, N,2,2,6,6-pentamethyl-N-{5-[4-(1H-pyrazol-4-yl)phenoxy]-1,3,4-thiadiazol-2-yl}piperidin-4-amine]",3 to 9 µM
3,"CC1(C)CC(Oc2ccc(-c3ccc(-c4cn[nH]c4)cc3C(F)F)nn2)CC(C)(C)N1 [Cpd 464, 3-[2-(difluoromethyl)-4-(1H-pyrazol-4-yl)phenyl]-6-[(2,2,6,6-tetramethylpiperidin-4-yl)oxy]pyridazine]",3 to 9 µM
4,"CN(c1ccc(-c2ccc(-c3cn[nH]c3)cc2C(F)F)nn1)C1CC(C)(C)NC(C)(C)C1 [Cpd 465, 6-[2-(difluoromethyl)-4-(1H-pyrazol-4-yl)phenyl]-N-methyl-N-(2,2,6,6-tetramethylpiperidin-4-yl)pyridazin-3-amine]",3 to 9 µM
